Test results taken from PubChem BioAssay AID1259407 (Chemical Carcinogenesis Research Information System (CCRIS), 2018).
Active and inactive are the calls of the source. How the calls were made is not given here.

Test system: CCRIS mutagenicity, Ames/micronucleus/aberration tests
Assay: CCRIS mutagenicity studies
[1] = Test System: AMES SALMONELLA TYPHIMURIUM, Strain/Indicator: TA98, Metabolic Activation: NONE, Method: PREINCUBATION
[2] = Test System: AMES SALMONELLA TYPHIMURIUM, Strain/Indicator: TA100, Metabolic Activation: NONE, Method: PREINCUBATION
[3] = Test System: AMES SALMONELLA TYPHIMURIUM, Strain/Indicator: TA98, Metabolic Activation: NONE, Method: STANDARD PLATE
[4] = Test System: AMES SALMONELLA TYPHIMURIUM, Strain/Indicator: TA100, Metabolic Activation: NONE, Method: STANDARD PLATE
[5] = Test System: AMES SALMONELLA TYPHIMURIUM, Strain/Indicator: TA98, Metabolic Activation: RAT, LIVER, S-9, AROCLOR 1254, Method: STANDARD PLATE
[6] = Test System: AMES SALMONELLA TYPHIMURIUM, Strain/Indicator: TA100, Metabolic Activation: RAT, LIVER, S-9, AROCLOR 1254, Method: STANDARD PLATE
[7] = Test System: AMES SALMONELLA TYPHIMURIUM, Strain/Indicator: TA1535, Metabolic Activation: NONE, Method: PREINCUBATION
[8] = Test System: AMES SALMONELLA TYPHIMURIUM, Strain/Indicator: TA1537, Metabolic Activation: NONE, Method: PREINCUBATION
[9] = Test System: AMES SALMONELLA TYPHIMURIUM, Strain/Indicator: TA1535, Metabolic Activation: NONE, Method: STANDARD PLATE
[10] = Test System: AMES SALMONELLA TYPHIMURIUM, Strain/Indicator: TA1537, Metabolic Activation: NONE, Method: STANDARD PLATE

CCOc1ccc(N)cc1
mutagenic call (Test System: AMES SALMONELLA TYPHIMURIUM, Strain/Indicator: TA98, Metabolic Activation: HAMSTER, LIVER, S-9, AROCLOR 1254 (30%), Method: PREINCUBATION): inactive; negative
mutagenic call [1]: inactive; negative
mutagenic call (Test System: AMES SALMONELLA TYPHIMURIUM, Strain/Indicator: TA98, Metabolic Activation: RAT, LIVER, S-9, AROCLOR 1254 (30%), Method: PREINCUBATION): inactive; negative
mutagenic call (Test System: AMES SALMONELLA TYPHIMURIUM, Strain/Indicator: TA100, Metabolic Activation: HAMSTER, LIVER, S-9, AROCLOR 1254 (30%), Method: PREINCUBATION): active; positive
mutagenic call (Test System: AMES SALMONELLA TYPHIMURIUM, Strain/Indicator: TA100, Metabolic Activation: HAMSTER, LIVER, S-9, KANECHLOR 400, Method: PREINCUBATION): active; positive
mutagenic call [2]: inactive; negative
mutagenic call (Test System: AMES SALMONELLA TYPHIMURIUM, Strain/Indicator: TA100, Metabolic Activation: RAT, LIVER, S-9, AROCLOR 1254 (30%), Method: PREINCUBATION): active; positive
mutagenic call (Test System: UDS RODENT HEPATOCYTES, Strain/Indicator: THY INCORP (NON-S-PHASE), Metabolic Activation: NONE, Method: AUTORADIOGRAPHY): inactive; negative

CC1(C2CO2)CO1 (centres undefined)
mutagenic call [3]: active; positive
mutagenic call [4]: active; positive

CC(C)COS(=O)(=O)c1ccccc1
mutagenic call [3]: active; positive
mutagenic call (Test System: AMES SALMONELLA TYPHIMURIUM, Strain/Indicator: TA98, Metabolic Activation: RAT, LIVER, S-9, Method: STANDARD PLATE): active; positive
mutagenic call (Test System: AMES SALMONELLA TYPHIMURIUM, Strain/Indicator: TA100, Metabolic Activation: RAT, LIVER, S-9, Method: STANDARD PLATE): active; positive

NC(=O)CCC(=O)Nc1ccc(Cl)cc1
mutagenic call [3]: inactive; negative
mutagenic call [5]: inactive; negative
mutagenic call [4]: inactive; negative
mutagenic call [6]: inactive; negative

C=CCc1ccc(OC)c(OC)c1
mutagenic call (Test System: AMES SALMONELLA TYPHIMURIUM, Strain/Indicator: TA98, Metabolic Activation: HAMSTER, LIVER, S-9, AROCLOR 1254, Method: PREINCUBATION): inactive; negative
mutagenic call [1]: inactive; negative
mutagenic call (Test System: AMES SALMONELLA TYPHIMURIUM, Strain/Indicator: TA98, Metabolic Activation: RAT, LIVER, S-9, AROCLOR 1254, Method: PREINCUBATION): inactive; negative
mutagenic call (Test System: AMES SALMONELLA TYPHIMURIUM, Strain/Indicator: TA100, Metabolic Activation: HAMSTER, LIVER, S-9, AROCLOR 1254, Method: PREINCUBATION): inactive; negative
mutagenic call [2]: inactive; negative
mutagenic call (Test System: AMES SALMONELLA TYPHIMURIUM, Strain/Indicator: TA100, Metabolic Activation: RAT, LIVER, S-9, AROCLOR 1254, Method: PREINCUBATION): inactive; negative
mutagenic call (Test System: AMES SALMONELLA TYPHIMURIUM, Strain/Indicator: TA1535, Metabolic Activation: HAMSTER, LIVER, S-9, AROCLOR 1254, Method: PREINCUBATION): inactive; negative
mutagenic call [7]: inactive; negative
mutagenic call (Test System: AMES SALMONELLA TYPHIMURIUM, Strain/Indicator: TA1535, Metabolic Activation: RAT, LIVER, S-9, AROCLOR 1254, Method: PREINCUBATION): inactive; negative
mutagenic call (Test System: AMES SALMONELLA TYPHIMURIUM, Strain/Indicator: TA1537, Metabolic Activation: HAMSTER, LIVER, S-9, AROCLOR 1254, Method: PREINCUBATION): inactive; negative
mutagenic call [8]: inactive; negative
mutagenic call (Test System: AMES SALMONELLA TYPHIMURIUM, Strain/Indicator: TA1537, Metabolic Activation: RAT, LIVER, S-9, AROCLOR 1254, Method: PREINCUBATION): inactive; negative

NC(=O)c1cccc2cccnc12
mutagenic call [3]: inactive; negative
mutagenic call [5]: inactive; negative
mutagenic call [4]: inactive; negative
mutagenic call [6]: active; positive
mutagenic call [9]: inactive; negative
mutagenic call (Test System: AMES SALMONELLA TYPHIMURIUM, Strain/Indicator: TA1535, Metabolic Activation: RAT, LIVER, S-9, AROCLOR 1254, Method: STANDARD PLATE): inactive; negative
mutagenic call [10]: inactive; negative
mutagenic call (Test System: AMES SALMONELLA TYPHIMURIUM, Strain/Indicator: TA1537, Metabolic Activation: RAT, LIVER, S-9, AROCLOR 1254, Method: STANDARD PLATE): inactive; negative

Clc1cccc(Cl)c1NC1=NCCN1
mutagenic call [1]: inactive; negative
mutagenic call (Test System: AMES SALMONELLA TYPHIMURIUM, Strain/Indicator: TA98, Metabolic Activation: S-9, Method: PREINCUBATION): inactive; negative
mutagenic call [2]: inactive; negative
mutagenic call (Test System: AMES SALMONELLA TYPHIMURIUM, Strain/Indicator: TA100, Metabolic Activation: S-9, Method: PREINCUBATION): inactive; negative
mutagenic call [7]: inactive; negative
mutagenic call (Test System: AMES SALMONELLA TYPHIMURIUM, Strain/Indicator: TA1535, Metabolic Activation: S-9, Method: PREINCUBATION): inactive; negative
mutagenic call [8]: inactive; negative
mutagenic call (Test System: AMES SALMONELLA TYPHIMURIUM, Strain/Indicator: TA1537, Metabolic Activation: S-9, Method: PREINCUBATION): inactive; negative
mutagenic call (Test System: E. COLI, Strain/Indicator: WP2 UVRA, Metabolic Activation: NONE, Method: PREINCUBATION): inactive; negative
mutagenic call (Test System: E. COLI, Strain/Indicator: WP2 UVRA, Metabolic Activation: S-9, Method: PREINCUBATION): inactive; negative
mutagenic call (Test System: UDS RAT HEPATOCYTES, Strain/Indicator: THY INCORP, Metabolic Activation: NONE, Method: IN VIVO-IN VITRO): inactive; negative

C[Si](C)(C)N[Si](C)(C)C
mutagenic call (Test System: AMES SALMONELLA TYPHIMURIUM, Strain/Indicator: TA98, Metabolic Activation: HAMSTER, LIVER, S-9, AROCLOR 1254 (10%), Method: STANDARD PLATE): inactive; negative
mutagenic call [3]: inactive; negative
mutagenic call (Test System: AMES SALMONELLA TYPHIMURIUM, Strain/Indicator: TA98, Metabolic Activation: RAT, LIVER, S-9, AROCLOR 1254 (10%), Method: STANDARD PLATE): inactive; negative
mutagenic call (Test System: AMES SALMONELLA TYPHIMURIUM, Strain/Indicator: TA100, Metabolic Activation: HAMSTER, LIVER, S-9, AROCLOR 1254 (10%), Method: STANDARD PLATE): inactive; negative
mutagenic call [4]: inactive; negative
mutagenic call (Test System: AMES SALMONELLA TYPHIMURIUM, Strain/Indicator: TA100, Metabolic Activation: RAT, LIVER, S-9, AROCLOR 1254 (10%), Method: STANDARD PLATE): inactive; negative
mutagenic call (Test System: AMES SALMONELLA TYPHIMURIUM, Strain/Indicator: TA1535, Metabolic Activation: HAMSTER, LIVER, S-9, AROCLOR 1254 (10%), Method: STANDARD PLATE): inactive; negative
mutagenic call [9]: inactive; negative
mutagenic call (Test System: AMES SALMONELLA TYPHIMURIUM, Strain/Indicator: TA1535, Metabolic Activation: RAT, LIVER, S-9, AROCLOR 1254 (10%), Method: STANDARD PLATE): inactive; negative
mutagenic call (Test System: AMES SALMONELLA TYPHIMURIUM, Strain/Indicator: TA1537, Metabolic Activation: HAMSTER, LIVER, S-9, AROCLOR 1254 (10%), Method: STANDARD PLATE): inactive; negative
mutagenic call [10]: inactive; negative
mutagenic call (Test System: AMES SALMONELLA TYPHIMURIUM, Strain/Indicator: TA1537, Metabolic Activation: RAT, LIVER, S-9, AROCLOR 1254 (10%), Method: STANDARD PLATE): inactive; negative
mutagenic call (Test System: AMES SALMONELLA TYPHIMURIUM, Strain/Indicator: TA1538, Metabolic Activation: HAMSTER, LIVER, S-9, AROCLOR 1254 (10%), Method: STANDARD PLATE): inactive; negative
mutagenic call (Test System: AMES SALMONELLA TYPHIMURIUM, Strain/Indicator: TA1538, Metabolic Activation: NONE, Method: STANDARD PLATE): inactive; negative
mutagenic call (Test System: AMES SALMONELLA TYPHIMURIUM, Strain/Indicator: TA1538, Metabolic Activation: RAT, LIVER, S-9, AROCLOR 1254 (10%), Method: STANDARD PLATE): inactive; negative
mutagenic call (Test System: MOUSE LYMPHOMA, Strain/Indicator: L5178Y (TK+/TK-), Metabolic Activation: NONE, Method: SUSPENSION/PLATE): inactive; negative. reevaluation of results: inconclusive
